Tests used:
[1] = molecular target: T1, bovine multidrug resistance protein 1 (bMRP1) (Bos taurus, UniProt Q8HXQ5); assay: biochemical
T1 construct: gene ABCC1

[2] = molecular target: T2, bovine multidrug resistance protein 1 (bMRP1) (Bos taurus, UniProt Q8HXQ5, DEL868-879); assay: smFRET dose response of IF1 state occupancy (purified protein); also stimulates ATPase activity; format: binding
T2 construct: gene ABCC1; purified WT bMRP1 with S6 peptide replacing residues 868–879 and A1 peptide after V1530, Cy3/LD655-labeled
T2 sequence (Q8HXQ5 1-867, stated change not applied): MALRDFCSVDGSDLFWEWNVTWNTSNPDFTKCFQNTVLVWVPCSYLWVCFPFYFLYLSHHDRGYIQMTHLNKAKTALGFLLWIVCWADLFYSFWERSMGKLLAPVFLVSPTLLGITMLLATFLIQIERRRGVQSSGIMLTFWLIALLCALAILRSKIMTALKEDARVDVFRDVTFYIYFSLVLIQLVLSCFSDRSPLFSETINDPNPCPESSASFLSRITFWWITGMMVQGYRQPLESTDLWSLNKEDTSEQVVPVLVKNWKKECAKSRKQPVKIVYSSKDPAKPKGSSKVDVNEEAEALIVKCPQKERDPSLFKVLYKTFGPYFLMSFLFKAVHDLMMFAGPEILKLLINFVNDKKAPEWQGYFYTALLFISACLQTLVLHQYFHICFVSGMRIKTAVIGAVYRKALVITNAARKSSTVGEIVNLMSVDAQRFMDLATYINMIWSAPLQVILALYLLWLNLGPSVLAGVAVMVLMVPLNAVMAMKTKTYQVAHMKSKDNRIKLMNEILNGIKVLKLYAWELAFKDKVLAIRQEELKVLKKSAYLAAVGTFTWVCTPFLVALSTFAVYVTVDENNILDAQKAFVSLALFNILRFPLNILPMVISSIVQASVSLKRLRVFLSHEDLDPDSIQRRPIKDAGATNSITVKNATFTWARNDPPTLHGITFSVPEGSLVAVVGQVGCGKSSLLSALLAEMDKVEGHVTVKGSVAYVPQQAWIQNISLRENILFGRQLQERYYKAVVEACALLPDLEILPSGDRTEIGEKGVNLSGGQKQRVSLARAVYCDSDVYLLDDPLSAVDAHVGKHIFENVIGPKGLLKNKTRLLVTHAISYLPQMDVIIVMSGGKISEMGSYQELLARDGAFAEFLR
T2 sequence (Q8HXQ5 880-1530, stated change not applied): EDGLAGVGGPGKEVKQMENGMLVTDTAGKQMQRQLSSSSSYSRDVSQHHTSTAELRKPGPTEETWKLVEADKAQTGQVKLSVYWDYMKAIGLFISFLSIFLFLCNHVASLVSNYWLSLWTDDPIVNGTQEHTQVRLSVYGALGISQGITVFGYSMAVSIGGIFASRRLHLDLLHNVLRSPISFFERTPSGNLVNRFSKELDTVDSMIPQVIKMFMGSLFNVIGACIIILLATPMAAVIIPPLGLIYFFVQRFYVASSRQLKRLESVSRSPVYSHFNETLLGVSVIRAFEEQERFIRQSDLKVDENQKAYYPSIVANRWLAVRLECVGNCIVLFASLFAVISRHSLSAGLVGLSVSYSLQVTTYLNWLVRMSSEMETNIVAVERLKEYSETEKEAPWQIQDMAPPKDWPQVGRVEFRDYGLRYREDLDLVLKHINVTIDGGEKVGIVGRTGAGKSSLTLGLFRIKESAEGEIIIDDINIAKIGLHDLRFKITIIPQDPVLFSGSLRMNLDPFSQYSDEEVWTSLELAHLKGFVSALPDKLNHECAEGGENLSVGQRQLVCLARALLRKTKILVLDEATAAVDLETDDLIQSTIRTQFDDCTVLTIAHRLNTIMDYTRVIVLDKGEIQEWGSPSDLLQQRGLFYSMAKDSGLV

T1 sequence (Q8HXQ5 whole entry): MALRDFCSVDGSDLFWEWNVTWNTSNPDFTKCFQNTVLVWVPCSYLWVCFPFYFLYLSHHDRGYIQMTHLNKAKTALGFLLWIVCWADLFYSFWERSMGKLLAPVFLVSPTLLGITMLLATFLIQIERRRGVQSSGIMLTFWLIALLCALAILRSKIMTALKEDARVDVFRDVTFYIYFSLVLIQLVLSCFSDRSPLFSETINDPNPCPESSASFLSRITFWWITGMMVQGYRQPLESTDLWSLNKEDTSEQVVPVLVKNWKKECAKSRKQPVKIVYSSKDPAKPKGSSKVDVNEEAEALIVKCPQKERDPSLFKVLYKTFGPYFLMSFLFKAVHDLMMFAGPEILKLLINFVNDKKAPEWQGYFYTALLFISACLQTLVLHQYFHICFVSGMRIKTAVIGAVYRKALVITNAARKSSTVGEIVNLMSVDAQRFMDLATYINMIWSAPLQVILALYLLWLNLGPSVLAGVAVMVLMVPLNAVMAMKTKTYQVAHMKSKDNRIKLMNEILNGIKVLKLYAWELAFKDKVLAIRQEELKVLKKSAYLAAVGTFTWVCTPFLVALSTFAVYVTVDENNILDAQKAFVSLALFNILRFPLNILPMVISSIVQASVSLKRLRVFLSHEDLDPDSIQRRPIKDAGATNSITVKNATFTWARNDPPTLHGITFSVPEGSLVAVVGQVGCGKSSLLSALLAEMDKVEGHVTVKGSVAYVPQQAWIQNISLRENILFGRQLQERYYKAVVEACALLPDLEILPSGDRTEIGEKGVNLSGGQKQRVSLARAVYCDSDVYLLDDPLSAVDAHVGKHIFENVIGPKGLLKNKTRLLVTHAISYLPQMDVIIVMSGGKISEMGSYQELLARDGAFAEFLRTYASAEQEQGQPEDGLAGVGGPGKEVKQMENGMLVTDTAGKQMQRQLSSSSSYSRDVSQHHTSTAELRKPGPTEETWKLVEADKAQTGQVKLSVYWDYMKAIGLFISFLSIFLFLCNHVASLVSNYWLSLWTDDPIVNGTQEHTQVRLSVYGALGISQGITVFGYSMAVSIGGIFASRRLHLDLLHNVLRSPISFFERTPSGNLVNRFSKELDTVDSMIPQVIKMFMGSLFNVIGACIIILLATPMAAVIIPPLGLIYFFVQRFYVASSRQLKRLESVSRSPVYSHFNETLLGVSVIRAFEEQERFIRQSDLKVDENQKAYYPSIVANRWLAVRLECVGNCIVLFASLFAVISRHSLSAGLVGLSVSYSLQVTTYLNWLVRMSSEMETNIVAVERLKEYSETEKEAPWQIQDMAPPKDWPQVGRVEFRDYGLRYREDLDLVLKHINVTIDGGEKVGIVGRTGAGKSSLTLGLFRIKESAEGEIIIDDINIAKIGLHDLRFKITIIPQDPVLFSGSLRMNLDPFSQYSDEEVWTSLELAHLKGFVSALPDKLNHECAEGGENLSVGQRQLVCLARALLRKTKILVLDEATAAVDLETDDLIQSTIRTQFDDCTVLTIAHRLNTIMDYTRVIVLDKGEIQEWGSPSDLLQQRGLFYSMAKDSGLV

`Nc1ncnc2c1ncn2[C@@H]1O[C@H](COP(=O)(O)OP(=O)(O)OP(=O)(O)O)[C@@H](O)[C@H]1O` [ATP] was tested, and the EC50 [1] was 50 ± 20 µM.

In the case of `CCCCC/C=C\C\C=C/C=C/C=C/[C@@H](SC[C@H](NC(=O)CC[C@H](N)C(=O)O)C(=O)NCC(=O)O)[C@@H](O)CCCC(=O)O` [Leukotriene C4], the EC50 [2] is reported as 0.32 ± 0.17 µM.

Source: article PMC7253176, “Characterization of the kinetic cycle of an ABC transporter by single-molecule and cryo-EM analyses” (eLife, 2020)
